Experimental data: patent US11793782B2, “Therapeutic agents for neurodegenerative diseases” (priority 2017, dated 2023)

Key:
[1] = system: corticobasal syndrome patient; assay: Case study, corticobasal syndrome; assay type: in vivo, human
Protocol: Gait analysis was performed before treatment commenced.

SCA 28 patient = assay: Case study, spinocerebellar ataxia 28 (SCA 28); assay type: in vivo, human
Protocol: A gait analysis was performed before treatment commenced. After about one month of treatment, medication was stopped and the patient was evaluated. […] The patient reported that they no longer walked like a robot and could climb the stairs without using the banisters.

[2] = system: NPC Chinese Hamster Ovary (CHO) cells; assay: Relative lysosomal volume via LysoTracker, NPC CHO cells; assay type: cell-based; details: 1 mM, 72 hours, p<0.01 versus untreated NPC1-null
Excerpt: Relative lysosomal volume was quantified via LysoTracker.

[3] = system: progressive supranuclear palsy patients; assay: Case studies, progressive supranuclear palsy patients; assay type: in vivo, human; details: for Clinical observation: 5 g per day; for Symptoms after stopping medication: about two months later
Protocol: After 27 days of acetyl-leucine treatment, medication was stopped and the patient was re-examined 60 days later. […] Gait analysis was performed before treatment commenced. […] Gait analysis was performed before treatment commenced. After 17 days of treatment, medication was stopped and the patient was re-examined 4 days later. […] Gait analysis was performed before treatment commenced. After three weeks of treatment, medication was stopped and the patient was re-examined.

[4] = system: Hexb−/− mouse (Sandhoff disease model); assay: Lifespan of Sandhoff mouse; assay type: in vivo
Protocol: This study made use of a mouse model of Sandhoff disease, the Hexb^−/− mouse, as descrbed in Jeyakumar et al. (Jeyakumar, M. et al. (1999) Proc. Natl. Acad. Sci. USA 96: 6388-6393).
In FIG. 7A, acetyl-leucine-treated mice were treated with 0.1 g/kg acetyl-leucine from 3 weeks of age. The asterisks (*) indicates a p-value of <0.05 vs untreated Sandhoff mice. Data is average of n=6 mice per group. Without treatment, the median survival time of Sandhoff mice was 112 days. Treatment with acetyl-leucine (0.1 g/kg body weight since 3 weeks of age) increased the median lifespan to 120 days.

Compound: CC(=O)NC(CC(C)C)C(=O)O (racemic) [acetyl-DL-leucine]
- Clinical observation ([1]; 5 g per day, after 20 days): improvement of dizziness symptoms and significant reduction in the frequency of falls
- Coefficient of variation (temporal) ([1]; after 20 days of treatment, before 3.9): 3.4
- Track width ([1]; after 20 days of treatment, before 12.1): 12.3 cm
- Functional Gait Assessment ([1]; after 20 days of treatment, before 13/30): 18/30
- Double stance ([1]; after 20 days of treatment, before 29.8): 26.6%
- speed ([1]; after 20 days of treatment, before 63): 92 cm/s
- Step cycle length ([1]; after 20 days of treatment, before 84): 104 cm
- cadence ([1]; after 20 days of treatment, before 90): 106 steps/minute
- Max. speed ([1]; after 20 days of treatment, before 131): 152 cm/s
- Symptoms after suspension of treatment ([1]; two days after suspension, after 8 weeks of treatment): increase of dizziness symptoms
- Clinical observation (SCA 28 patient; 5 g per day, after about one month): improvement of the symptomatology
- Coefficient of variation (temporal) (SCA 28 patient; after treatment for one month, before 4.1): 2.1
- Track width (SCA 28 patient; after treatment for one month, before 14.5): 11.7 cm
- Functional Gait Assessment (SCA 28 patient; after treatment for one month, before 24/30): 23/30
- Double stance (SCA 28 patient; after treatment for one month, before 24.9): 23.8%
- cadence (SCA 28 patient; after treatment for one month, before 100): 105 steps/minute
- Self-chosen speed (SCA 28 patient; after treatment for one month, before 101): 118 cm/s
- Step cycle length (SCA 28 patient; after treatment for one month, before 122): 135 cm
- Maximum speed (SCA 28 patient; after treatment for one month, before 188): 201 cm/s
- Lysosomal volume (LysoTracker) [2]: significantly reduced lysosomal volume
- Symptoms after suspension of treatment ([3]; PSP Patient 1): symptoms worsened
- Clinical observation ([3]; PSP Patient 1, 27 days of treatment): significant reduction of dizziness and slight improvement of gait
- PSPRS Score ([3]; PSP Patient 1, re-examined about two months later): remained stable
- Clinical observation ([3]; PSP Patient 2, 17 days of treatment, re-examined 4 days after stopping): no significant improvement of gait or hypokinetic rigid syndrome
- Symptoms after stopping medication ([3]; PSP Patient 2): no deterioration of symptoms
- Coefficient of variation (temporal) ([3]; PSP Patient 2, after 17 days of treatment, before 8.5): 6.6
- Track width ([3]; PSP Patient 2, after 17 days of treatment, before 10.3): 9.3 cm
- Functional Gait Assessment ([3]; PSP Patient 2, after 17 days of treatment, before 15/30): 15/30
- Double stance ([3]; PSP Patient 2, after 17 days of treatment, before 34.5): 28.6%
- speed ([3]; PSP Patient 2, after 17 days of treatment, before 51): 68 cm/s
- Step cycle length ([3]; PSP Patient 2, after 17 days of treatment, before 66): 82 cm
- cadence ([3]; PSP Patient 2, after 17 days of treatment, before 93): 99 steps/minute
- Max. speed ([3]; PSP Patient 2, after 17 days of treatment, before 123): 98 cm/s
- Clinical observation ([3]; PSP Patient 3, 17 days of treatment, re-examined 4 days after stopping): no significant improvement of gait or hypokinetic rigid syndrome
- Symptoms after stopping medication ([3]; PSP Patient 3): no deterioration of symptoms
- Coefficient of variation (temporal) ([3]; PSP Patient 3, after 17 days of treatment, before 3.6): 3.1
- Track width ([3]; PSP Patient 3, after 17 days of treatment, before 15.5): 15.1 cm
- Double stance ([3]; PSP Patient 3, after 17 days of treatment, before 25.8): 24.3%
- Functional Gait Assessment ([3]; PSP Patient 3, after 17 days of treatment, before 28/30): 27/30
- speed ([3]; PSP Patient 3, after 17 days of treatment, before 103): 120 cm/s
- cadence ([3]; PSP Patient 3, after 17 days of treatment, before 106): 112 steps/minute
- Step cycle length ([3]; PSP Patient 3, after 17 days of treatment, before 118): 129 cm
- Max. speed ([3]; PSP Patient 3, after 17 days of treatment, before 163): 194 cm/s
- Clinical observation ([3]; PSP Patient 4, after three weeks of treatment): gait with increased subjective security and with reduced frequency of falls
- Functional Gait Assessment ([3]; PSP Patient 4, after 3 weeks of treatment): 14/30
- Coefficient of variation (temporal) ([3]; PSP Patient 4, after 3 weeks of treatment, before 8.2): 6.8
- Track width ([3]; PSP Patient 4, after 3 weeks of treatment, before 15.4): 13.6 cm
- speed ([3]; PSP Patient 4, after 3 weeks of treatment, before 39): 65 cm/s
- Step cycle length ([3]; PSP Patient 4, after 3 weeks of treatment, before 43): 63 cm
- Double stance ([3]; PSP Patient 4, after 3 weeks of treatment, before 45.4): 36%
- Max. speed ([3]; PSP Patient 4, after 3 weeks of treatment, before 70): 93 cm/s
- cadence ([3]; PSP Patient 4, after 3 weeks of treatment, before 109): 125 steps/minute
- Symptoms without medication ([3]; PSP Patient 4, after three months without medication): progression of hypokinetic-rigid syndrome
- Median lifespan ([4]; Sandhoff mice, 0.1 g/kg body weight since 3 weeks of age, untreated 112 days): 120 days
- Lifespan ([4]; Sandhoff mouse, 0.1 g/kg from 3 weeks of age, p<0.05 vs untreated): statistically significant increase in the lifespan
